For assay [1], the target named is His6-TEV-PDGFRβ (557-1016) (Homo sapiens (Human), UniProt P09619). In words: PDGFRβ HTRF Assay. Format: biochemical. The following applies: read-out: PDGFR HTRF IC50. The procedure, abridged:
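HTRF KinEASE-TK readout (665/620 nm ratio) of TK-biotin substrate phosphorylation by His-tagged PDGFRβ kinase domain. Enzyme and inhibitor preincubated 30 min, then ATP/substrate added for 3 h at room temperature before 60 min EDTA quench/detection.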

For assay [2], the target named is Tb-labeled inactive PDGFRβ (Homo sapiens (Human), UniProt P09619). The assay can be described thus: PDGFRβ LanthaScreen Assay. Format: binding. As to conditions: read-out: PDGFR Lantha IC50. Background: TR-FRET usually uses a lanthanide donor and a delayed reading to cut background.
The next assay concerns the target VEGFR2, unphosphorylated (Homo sapiens (Human), UniProt P35968). In words: VEGFR ADP GLO Assay. Format: biochemical. In general terms: In ADP-Glo the light output rises with the ADP produced.

The text below walks through data of US20240109917A1 (ACTELION PHARMACEUTICALS LTD, priority 2020, published 2024).

VEGFR2, unphosphorylated, sequence (P35968 20-1356): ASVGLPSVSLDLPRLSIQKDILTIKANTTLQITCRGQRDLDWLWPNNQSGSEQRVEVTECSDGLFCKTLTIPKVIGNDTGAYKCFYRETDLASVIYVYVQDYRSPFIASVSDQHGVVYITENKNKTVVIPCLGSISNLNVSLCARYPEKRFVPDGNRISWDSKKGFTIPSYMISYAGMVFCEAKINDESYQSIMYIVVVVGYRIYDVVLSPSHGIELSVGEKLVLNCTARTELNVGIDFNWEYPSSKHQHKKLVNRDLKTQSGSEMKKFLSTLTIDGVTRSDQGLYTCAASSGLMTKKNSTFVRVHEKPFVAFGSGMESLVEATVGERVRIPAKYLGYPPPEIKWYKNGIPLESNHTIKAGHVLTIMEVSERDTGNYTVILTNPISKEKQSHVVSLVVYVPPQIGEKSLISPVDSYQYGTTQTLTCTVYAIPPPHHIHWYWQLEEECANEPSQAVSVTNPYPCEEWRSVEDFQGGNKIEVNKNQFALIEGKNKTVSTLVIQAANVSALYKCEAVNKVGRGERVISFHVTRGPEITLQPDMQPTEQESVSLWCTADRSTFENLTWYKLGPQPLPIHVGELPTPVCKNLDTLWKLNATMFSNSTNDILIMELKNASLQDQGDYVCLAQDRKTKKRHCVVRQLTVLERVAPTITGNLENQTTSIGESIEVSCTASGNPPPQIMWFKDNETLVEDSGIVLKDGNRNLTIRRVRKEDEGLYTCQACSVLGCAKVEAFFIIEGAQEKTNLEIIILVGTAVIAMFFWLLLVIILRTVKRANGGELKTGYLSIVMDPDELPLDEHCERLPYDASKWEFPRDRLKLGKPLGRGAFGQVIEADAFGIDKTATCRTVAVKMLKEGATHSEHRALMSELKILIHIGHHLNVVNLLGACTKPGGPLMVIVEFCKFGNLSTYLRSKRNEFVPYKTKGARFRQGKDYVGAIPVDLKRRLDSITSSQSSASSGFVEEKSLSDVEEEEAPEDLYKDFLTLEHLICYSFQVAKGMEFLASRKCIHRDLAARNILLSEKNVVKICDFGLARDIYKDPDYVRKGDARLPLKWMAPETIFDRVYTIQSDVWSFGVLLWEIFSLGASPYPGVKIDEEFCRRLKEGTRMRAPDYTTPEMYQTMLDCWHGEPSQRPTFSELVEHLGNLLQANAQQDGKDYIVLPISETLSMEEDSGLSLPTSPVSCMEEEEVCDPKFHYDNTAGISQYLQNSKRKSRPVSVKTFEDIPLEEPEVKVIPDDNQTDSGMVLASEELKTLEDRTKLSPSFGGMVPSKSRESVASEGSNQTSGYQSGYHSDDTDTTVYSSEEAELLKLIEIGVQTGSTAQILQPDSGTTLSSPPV
Tb-labeled inactive PDGFRβ, sequence (P09619 33-1106): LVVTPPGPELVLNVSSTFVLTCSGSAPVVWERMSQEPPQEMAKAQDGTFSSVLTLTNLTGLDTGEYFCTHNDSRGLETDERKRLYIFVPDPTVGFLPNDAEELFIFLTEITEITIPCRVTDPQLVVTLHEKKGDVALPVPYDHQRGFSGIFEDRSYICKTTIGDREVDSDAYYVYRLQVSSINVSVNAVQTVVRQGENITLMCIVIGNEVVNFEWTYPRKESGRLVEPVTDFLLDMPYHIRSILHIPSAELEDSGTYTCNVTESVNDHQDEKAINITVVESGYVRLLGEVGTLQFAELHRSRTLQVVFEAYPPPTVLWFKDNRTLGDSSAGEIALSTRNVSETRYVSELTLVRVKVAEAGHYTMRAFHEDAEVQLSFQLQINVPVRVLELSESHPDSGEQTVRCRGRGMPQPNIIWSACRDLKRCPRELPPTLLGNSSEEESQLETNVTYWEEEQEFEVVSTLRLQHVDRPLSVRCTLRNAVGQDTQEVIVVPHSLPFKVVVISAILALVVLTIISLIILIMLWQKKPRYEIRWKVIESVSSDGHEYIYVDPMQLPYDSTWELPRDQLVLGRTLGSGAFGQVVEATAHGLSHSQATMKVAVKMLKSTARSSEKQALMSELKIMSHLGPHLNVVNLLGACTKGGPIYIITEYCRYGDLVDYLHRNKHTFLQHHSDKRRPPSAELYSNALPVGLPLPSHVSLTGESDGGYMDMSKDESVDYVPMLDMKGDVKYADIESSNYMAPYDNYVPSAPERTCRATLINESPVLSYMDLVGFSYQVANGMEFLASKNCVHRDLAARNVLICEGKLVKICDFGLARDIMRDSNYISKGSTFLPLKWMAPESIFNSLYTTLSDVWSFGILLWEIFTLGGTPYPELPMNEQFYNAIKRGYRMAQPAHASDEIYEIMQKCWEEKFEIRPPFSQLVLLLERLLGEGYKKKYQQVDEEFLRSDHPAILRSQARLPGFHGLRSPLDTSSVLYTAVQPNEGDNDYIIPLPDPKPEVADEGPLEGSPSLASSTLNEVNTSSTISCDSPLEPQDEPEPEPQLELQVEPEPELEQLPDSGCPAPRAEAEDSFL
His6-TEV-PDGFRβ (557-1016), sequence (P09619 557-1016): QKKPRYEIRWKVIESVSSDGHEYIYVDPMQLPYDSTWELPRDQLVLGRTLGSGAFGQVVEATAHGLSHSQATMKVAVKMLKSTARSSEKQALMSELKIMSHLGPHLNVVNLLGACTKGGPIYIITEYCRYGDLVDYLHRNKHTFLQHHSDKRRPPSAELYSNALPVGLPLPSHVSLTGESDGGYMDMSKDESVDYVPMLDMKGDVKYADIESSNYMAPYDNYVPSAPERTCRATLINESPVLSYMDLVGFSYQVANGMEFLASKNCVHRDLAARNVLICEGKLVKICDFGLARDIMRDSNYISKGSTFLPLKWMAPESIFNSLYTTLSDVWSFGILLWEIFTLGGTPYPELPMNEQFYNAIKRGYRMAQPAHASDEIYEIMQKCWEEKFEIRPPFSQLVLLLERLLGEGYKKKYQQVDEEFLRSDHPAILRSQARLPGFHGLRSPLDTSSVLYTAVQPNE

`COCCn1cc(-c2cn3ncc(C(=O)Nc4cc(NC(=O)CN5CC6CCC5CC6)cnc4C)c3s2)cn1` [Example 331, N-(5-(2-(2-azabicyclo[2.2.2]octan-2-yl)acetamido)-2-methylpyridin-3-yl)-2-(1-(2-methoxyethyl)-1H-pyrazol-4-yl)pyrazolo[5,1-b]thiazole-7-carboxamide]: the concentration for half-maximal inhibition (IC50) was 0.4 nM in assay [1]; 3.3 nM in assay [2]; over 7500 nM at VEGFR2, unphosphorylated.
For the compound `COCCn1cc(-c2cn3ncc(C(=O)Nc4cc(NC(=O)CN5CCCC56CCC6)cnc4C)c3s2)cn1` [Example 332, N-(5-(2-(5-azaspiro[3.4]octan-5-yl)acetamido)-2-methylpyridin-3-yl)-2-(1-(2-methoxyethyl)-1H-pyrazol-4-yl)pyrazolo[5,1-b]thiazole-7-carboxamide], the IC50 is 0.6 nM in assay [1]; 4.1 nM in assay [2]; over 7500 nM against VEGFR2, unphosphorylated.
On to `COCCn1cc(-c2cn3ncc(C(=O)Nc4cc(NC(=O)CN5CCC56CCC6)cnc4C)c3s2)cn1` [Example 333, N-(5-(2-(1-azaspiro[3.3]heptan-1-yl)acetamido)-2-methylpyridin-3-yl)-2-(1-(2-methoxyethyl)-1H-pyrazol-4-yl)pyrazolo[5,1-b]thiazole-7-carboxamide], for which the IC50 in assay [1] was 0.4 nM; in assay [2], 3.1 nM; at VEGFR2, unphosphorylated, over 7500 nM.
Taken in the same sequence, the figures for `COCCn1cc(-c2cn3ncc(C(=O)Nc4cc(NC(=O)CN5C[C@H]6CC[C@@H]5C6)cnc4C)c3s2)cn1` [Example 334, N-(5-(2-((1R,4S)-2-azabicyclo[2.2.1]heptan-2-yl)acetamido)-2-methylpyridin-3-yl)-2-(1-(2-methoxyethyl)-1H-pyrazol-4-yl)pyrazolo[5,1-b]thiazole-7-carboxamide] were 0.5 nM, 9.1 nM and over 7500 nM.
For the compound `COCCn1cc(-c2cn3ncc(C(=O)Nc4cc(NC(=O)CN5CCCC6(CC6)C5)cnc4C)c3s2)cn1` [Example 335, N-(5-(2-(5-azaspiro[2.5]octan-5-yl)acetamido)-2-methylpyridin-3-yl)-2-(1-(2-methoxyethyl)-1H-pyrazol-4-yl)pyrazolo[5,1-b]thiazole-7-carboxamide], the IC50 was 0.4 nM in assay [1]; 3 nM in assay [2]; over 7500 nM on VEGFR2, unphosphorylated.
On to `COCCn1cc(-c2cn3ncc(C(=O)Nc4cc(NC(=O)CN5CCC(C)(C)C5)cnc4C)c3s2)cn1` [Example 336, N-(5-(2-(3,3-dimethylpyrrolidin-1-yl)acetamido)-2-methylpyridin-3-yl)-2-(1-(2-methoxyethyl)-1H-pyrazol-4-yl)pyrazolo[5,1-b]thiazole-7-carboxamide], for which the 50% inhibitory concentration (IC50) in assay [1] is 0.4 nM; in assay [2], 3.3 nM; against VEGFR2, unphosphorylated, over 7500 nM.
As to `COCCn1cc(-c2cn3ncc(C(=O)Nc4cc(NC(=O)CN5CCCC5)cnc4C)c3s2)cn1` [Example 337, 2-(1-(2-methoxyethyl)-1H-pyrazol-4-yl)-N-(2-methyl-5-(2-(pyrrolidin-1-yl)acetamido)pyridin-3-yl)pyrazolo[5,1-b]thiazole-7-carboxamide], the IC50 in assay [1] was 1.8 nM; in assay [2], 46.2 nM; at VEGFR2, unphosphorylated it was over 7500 nM.
For the compound `COCCn1cc(-c2cn3ncc(C(=O)Nc4cc(NC(=O)CN5CCCCC5)cnc4C)c3s2)cn1` [Example 338, 2-(1-(2-methoxyethyl)-1H-pyrazol-4-yl)-N-(2-methyl-5-(2-(piperidin-1-yl)acetamido)pyridin-3-yl)pyrazolo[5,1-b]thiazole-7-carboxamide], the IC50 in assay [1] was 0.4 nM; in assay [2], 4.8 nM; on VEGFR2, unphosphorylated, over 7500 nM.
On the same counts, the results for `COCCn1cc(-c2cn3ncc(C(=O)Nc4cc(NC(=O)CN5CCCCCC5)cnc4C)c3s2)cn1` [Example 339, N-(5-(2-(azepan-1-yl)acetamido)-2-methylpyridin-3-yl)-2-(1-(2-methoxyethyl)-1H-pyrazol-4-yl)pyrazolo[5,1-b]thiazole-7-carboxamide] are 0.4 nM, 3 nM and over 7500 nM.
Taken in the same sequence, the figures for `COCCn1cc(-c2cn3ncc(C(=O)Nc4cc(NC(=O)CN5C6CCC5CC6)cnc4C)c3s2)cn1` [Example 340, N-(5-(2-(7-azabicyclo[2.2.1]heptan-7-yl)acetamido)-2-methylpyridin-3-yl)-2-(1-(2-methoxyethyl)-1H-pyrazol-4-yl)pyrazolo[5,1-b]thiazole-7-carboxamide] were 0.5 nM, 7.5 nM and over 7500 nM.
With `COCCn1cc(-c2cn3ncc(C(=O)Nc4cc(NC(=O)CN5CCC(C6CC6)C5)cnc4C)c3s2)cn1` (stereo not drawn) [Example 341, N-(5-(2-(3-cyclopropylpyrrolidin-1-yl)acetamido)-2-methylpyridin-3-yl)-2-(1-(2-methoxyethyl)-1H-pyrazol-4-yl)pyrazolo[5,1-b]thiazole-7-carboxamide], the IC50 is 0.4 nM in assay [1]; 4.6 nM in assay [2]; over 7500 nM against VEGFR2, unphosphorylated.
On the same counts, the results for `COCCn1cc(-c2cn3ncc(C(=O)Nc4cc(NC(=O)C5CN(C(C)C)C5)cnc4C)c3s2)cn1` [Example 342, N-(5-(1-isopropylazetidine-3-carboxamido)-2-methylpyridin-3-yl)-2-(1-(2-methoxyethyl)-1H-pyrazol-4-yl)pyrazolo[5,1-b]thiazole-7-carboxamide] are 0.6 nM, 15.9 nM and over 7500 nM.
Regarding `COCCn1cc(-c2cn3ncc(C(=O)Nc4cc(NC(=O)[C@@H]5CCCN5C(C)C)cnc4C)c3s2)cn1` [Example 343, (S)—N-(5-(1-isopropylpyrrolidine-2-carboxamido)-2-methylpyridin-3-yl)-2-(1-(2-methoxyethyl)-1H-pyrazol-4-yl)pyrazolo[5,1-b]thiazole-7-carboxamide], the IC50 was 3.5 nM in assay [1]; 84.8 nM in assay [2]; over 7500 nM against VEGFR2, unphosphorylated.
With `COCCn1cc(-c2cn3ncc(C(=O)Nc4cc(NC(=O)[C@H]5CCCN5C(C)C)cnc4C)c3s2)cn1` [Example 344, (R)—N-(5-(1-isopropylpyrrolidine-2-carboxamido)-2-methylpyridin-3-yl)-2-(1-(2-methoxyethyl)-1H-pyrazol-4-yl)pyrazolo[5,1-b]thiazole-7-carboxamide], the IC50 is 4.3 nM in assay [1]; 67.5 nM in assay [2]; over 7500 nM against VEGFR2, unphosphorylated.
As for `COCCn1cc(-c2cn3ncc(C(=O)Nc4cc(NC(=O)C5CCN(C(C)C)C5)cnc4C)c3s2)cn1` (stereo not drawn) [Example 345, N-(5-(1-isopropylpyrrolidine-3-carboxamido)-2-methylpyridin-3-yl)-2-(1-(2-methoxyethyl)-1H-pyrazol-4-yl)pyrazolo[5,1-b]thiazole-7-carboxamide], the concentration for half-maximal inhibition (IC50) is 1.3 nM in assay [1]; 56.9 nM in assay [2]; over 7500 nM against VEGFR2, unphosphorylated.
Consider `Cc1ncc(NC(=O)[C@@H]2CCCN2C(C)C)cc1NC(=O)c1cnn2cc(-c3cnn4c3OCCC4)sc12` [Example 346, (S)-2-(6,7-dihydro-5H-pyrazolo[5,1-b][1,3]oxazin-3-yl)-N-(5-(1-isopropylpyrrolidine-2-carboxamido)-2-methylpyridin-3-yl)pyrazolo[5,1-b]thiazole-7-carboxamide], for which the IC50 in assay [1] was 0.5 nM; in assay [2], 6.5 nM; at VEGFR2, unphosphorylated, over 7500 nM.
In the case of `Cc1ncc(NC(=O)[C@H]2CCCN2C(C)C)cc1NC(=O)c1cnn2cc(-c3cnn4c3OCCC4)sc12` [Example 347, (R)-2-(6,7-dihydro-5H-pyrazolo[5,1-b][1,3]oxazin-3-yl)-N-(5-(1-isopropylpyrrolidine-2-carboxamido)-2-methylpyridin-3-yl)pyrazolo[5,1-b]thiazole-7-carboxamide], the IC50 is 0.5 nM in assay [1]; 6 nM in assay [2]; over 7500 nM against VEGFR2, unphosphorylated.
For `Cc1ncc(NC(=O)C2CN(C(C)C)C2)cc1NC(=O)c1cnn2cc(-c3cnn4c3OCCC4)sc12` [Example 348, 2-(6,7-dihydro-5H-pyrazolo[5,1-b][1,3]oxazin-3-yl)-N-(5-(1-isopropylazetidine-3-carboxamido)-2-methylpyridin-3-yl)pyrazolo[5,1-b]thiazole-7-carboxamide], the IC50 in assay [1] was 0.4 nM; in assay [2], 4 nM; against VEGFR2, unphosphorylated, over 7500 nM.
Taken in the same sequence, the figures for `Cc1ncc(NC(=O)[C@@H]2CCCN2C)cc1NC(=O)c1cnn2cc(-c3cnn4c3OCCC4)sc12` [Example 349, (S)-2-(6,7-dihydro-5H-pyrazolo[5,1-b][1,3]oxazin-3-yl)-N-(2-methyl-5-(1-methylpyrrolidine-2-carboxamido)pyridin-3-yl)pyrazolo[5,1-b]thiazole-7-carboxamide] were 0.6 nM, 8.7 nM and over 7500 nM.
Taken in the same sequence, the figures for `Cc1ncc(NC(=O)C2CCN(C(C)C)C2)cc1NC(=O)c1cnn2cc(-c3cnn4c3OCCC4)sc12` (stereo not drawn) [Example 350, 2-(6,7-dihydro-5H-pyrazolo[5,1-b][1,3]oxazin-3-yl)-N-(5-(1-isopropylpyrrolidine-3-carboxamido)-2-methylpyridin-3-yl)pyrazolo[5,1-b]thiazole-7-carboxamide] were 0.3 nM, 4.1 nM and 6350 nM.
On to `Cc1ncc(NC(=O)C[C@H]2CCCN2C(C)C)cc1NC(=O)c1cnn2cc(-c3cnn4c3OCCC4)sc12` [Example 351, (R)-2-(6,7-dihydro-5H-pyrazolo[5,1-b][1,3]oxazin-3-yl)-N-(5-(2-(1-isopropylpyrrolidin-2-yl)acetamido)-2-methylpyridin-3-yl)pyrazolo[5,1-b]thiazole-7-carboxamide], for which the IC50 in assay [1] is 0.3 nM; in assay [2], 3.1 nM; at VEGFR2, unphosphorylated, over 7500 nM.

As usually defined, the IC50 is the concentration that gives 50% inhibition.
